According to patent US9101642B2, “Ticagrelor co-crystal” (AstraZeneca AB, priority 2011, dated 2015):

Key:
[1] = Micro-dissolution in blank Fassif (fasted intestinal fluid without micelle forming components); type: physicochemical; details: blank Fassif pH 6.5, 9 mg in 25 ml, mean of n = 2
Method: (§1) Micro-dissolution investigations were performed on 9 mg of a sample of Compound A:acetyl salicylic acid co-crystal (prepared as described in Example 4) or Compound A Form II in both 25 ml of (i) Fasted intestinal fluid (Fassif) without micelle forming components (termed blank Fassif) and (ii) of Simulated Gastric Fluid (SGF). The samples were magnetically stirred and aliquots were taken at appropriate time intervals, centrifuged and the supernatant analysed by HPLC and the concentration of Compound A measured as a function of time.
Fasted intestinal fluid without micelle forming components (blank Fassif) media was prepared from 0.348 g NaOH pellets, 3.954 g NaH2PO4.H2O and 6.186 g NaCl in 1 L milli-Q water. The pH was then adjusted to pH 6.5 with 1N NaOH or 1N HCl.

[2] = Micro-dissolution in Simulated Gastric Fluid (SGF); type: physicochemical; details: 9 mg in 25 ml, mean of n = 2
Method: as §1
Simulated Gastric Fluid (SGF) media was prepared by adding 131.5 ml 1M HCl to 4 g NaCl and the resulting solution made up to 2 Liters with milli-Q water (de-ionised water).

SMILES: CCCSc1nc(N[C@@H]2C[C@H]2c2ccc(F)c(F)c2)c2nnn([C@@H]3C[C@H](OCCO)[C@@H](O)[C@H]3O)c2n1 (relative stereo) [Compound A Form II, {1S-[1α,2α, 3β(1S*,2R*),5β]}-3-(7-{[2-(3,4-difluorophenyl)cyclopropyl]amino}-5-(propylthio)-3H-1,2,3-triazolo[4,5-d]pyrimidin-3-yl)-5-(2-hydroxyethoxy)cyclopentane-1,2-diol]
- Concentration of Compound A ([1]; time 0 mins): 0.00 µg/mL
- Concentration of Compound A ([1]; time 10 mins): 2.95 µg/mL
- Concentration of Compound A ([1]; time 20 mins): 3.24 µg/mL
- Concentration of Compound A ([1]; time 30 mins): 3.31 µg/mL
- Concentration of Compound A ([1]; time 60 mins): 3.51 µg/mL
- Concentration of Compound A ([1]; time 240 mins): 3.37 µg/mL
- Concentration of Compound A ([2]; time 0 mins): 0.00 µg/mL
- Concentration of Compound A ([2]; time 10 mins): 7.82 µg/mL
- Concentration of Compound A ([2]; time 20 mins): 8.10 µg/mL
- Concentration of Compound A ([2]; time 30 mins): 8.52 µg/mL
- Concentration of Compound A ([2]; time 60 mins): 8.10 µg/mL
- Concentration of Compound A ([2]; time 240 mins): 8.45 µg/mL
